In patent publication US20130018094A1, “Prophylactic or Therapeutic Agent For Gum Disease or Apical Periodontitis” (priority 2009, published 2013):
Entries after “also recorded” stand apart in the source; their conditions may differ.

Experiments:
[1] = test system: rat experimental apical periodontitis; test: Rat apical periodontitis model: size of apical lesions by micro-CT; format: in vivo; conditions: male Wistar rats, 150 mg/kg orally twice per day
Method: Using a rat apical periodontitis model, pharmacological tests were conducted for monosodium (2S,3S)-3-[[(1S)-1-isobutozymethyl-3-methylbutyl]-carbamoyl]oxirane-2-carboxylate.
(§1) An experiment was conducted using six-week-old male Wistar rats. After the pulp of the mandibular first molar was exposed using a round bar, apical periodontitis was induced by extracting the pulp and opening it inside the oral cavity. In the experimental groups, monosodium (2S,3S)-3-[[(1S)-1-isobutozymethyl-3-methylbutyl]-carbamoyl]oxirane-2-carboxylate (compound A: 150 mg/kg) was orally administered twice per day. A non-administration group was used as a control. After 21 days, the rats were euthanized and the jawbone surrounding each mandibular molar was extracted. The left side was fixed in 4% paraformaldehyde/phosphate buffer solution (PBS) (4° C., 12 hours), and then the size of the apical lesion was measured by micro-CT imaging (Shimadzu SMX-90CT). […] On the right side, the lesion portion surrounding the apex was extracted as a lump together with the apex, and after RNA extraction (Qiagen: RNeasy Lipid Tissue Mini Kit), cDNA was created by ordinary methods (Invitrogen: Superscript III), and the levels of expression of inflammatory cytokines (IL-1α and IL-6) were measured by real-time PCR (BioRad: DNA Engine Opticon 2; Invitrogen: Platinum SYBR Green qPCR SuperMix).

[2] = test system: osteoclasts on the alveolar bone surrounding the apex; test: Rat apical periodontitis model: histological examination (HE and TRAP staining) of osteoclasts; format: in vivo; conditions: male Wistar rats, 150 mg/kg orally twice per day, after 21 days, vs control group
Method: as §1, with “SMX-90CT). After that, it was decalcified with 15% EDTA solution and embedded in OCT compound, and frozen slices 7 μm thick were made.” for “SMX-90CT).”

cathepsin K = target: T1, cathepsin K (Homo sapiens, UniProt P43235); conditions: known from Patent Reference 4 (WO 99/11640); cited from earlier work
T1 sequence (P43235 115-329): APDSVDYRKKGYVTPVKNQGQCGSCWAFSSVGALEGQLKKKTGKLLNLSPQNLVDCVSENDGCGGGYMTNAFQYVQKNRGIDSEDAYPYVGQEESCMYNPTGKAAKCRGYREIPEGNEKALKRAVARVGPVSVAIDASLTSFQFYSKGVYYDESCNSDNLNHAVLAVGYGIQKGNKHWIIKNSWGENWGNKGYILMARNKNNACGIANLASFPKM

IL-6 = test: Rat apical periodontitis model: level of expression of IL-6 in the lesions by real-time PCR; format: in vivo; conditions: male Wistar rats, 150 mg/kg orally twice per day, after 21 days, vs control group
Method: as §1, with “SMX-90CT). After that, it was decalcified with 15% EDTA solution and embedded in OCT compound, and frozen slices 7 μm thick were made.” for “SMX-90CT).”

IL-1α = test: Rat apical periodontitis model: level of expression of IL-1α in the lesions by real-time PCR; format: in vivo; conditions: male Wistar rats, 150 mg/kg orally twice per day, after 21 days, vs control group
Method: as §1, with “SMX-90CT). After that, it was decalcified with 15% EDTA solution and embedded in OCT compound, and frozen slices 7 μm thick were made.” for “SMX-90CT).”

Compound: CC(C)COC[C@H](CC(C)C)NC(=O)[C@H]1O[C@@H]1C(=O)[O-].[Na+] [compound A, monosodium (2S,3S)-3-[[(1S)-1-isobutozymethyl-3-methylbutyl]-carbamoyl]oxirane-2-carboxylate]
- suppressive effect against progression of rat experimental apical periodontitis ([1]; 21 days): excellent suppressive effect
- size of apical lesions by micro-CT ([1]; after 21 days, vs control group, 150 mg/kg): smaller apical lesions were formed; also recorded: their size was smaller than in the control group
- number of osteoclasts on the alveolar bone surrounding the apex (histological examination) [2]: their number tended to be small
- cathepsin K inhibiting action (cathepsin K): has a cathepsin K inhibiting action
- level of expression of IL-6 in the lesions (IL-6): significantly suppressed
- level of expression of IL-1α in the lesions (IL-1α): significantly suppressed
